For test [1], the system named is Cerebellar granule neuron (CGN) cultures. The experiment in a line: Stimulation of neurite outgrowth from cerebellar granule neurons in vitro. It is filed as cell-based, rat. The following applies: 24 h treatment of CGN cultures. The source says:
Cerebellar granule neuron (CGN) cultures were obtained from 3-4-day-old Wistar rats (Charles River, Sulzfeld, Germany, or Moellegaard, Denmark) as previously described by Schousboe et al. (1989). Briefly, the cerebella were dissected, cleared of meninges and blood vessels, chopped, and trypsinized. The neurons were washed in the presence of DNAse 1 and soybean trypsin inhibitor (Sigma), and cellular debris was pelleted by centrifugation; the cells resuspended and then plated on poly-L-lysine (PLL; Sigma)-coated or uncoated microtiter plates in Neurobasal medium supplemented with 4% (w/v) bovine serum albumin (BSA), 2% (v/v) B27, 1% (v/v) glutamax, 100 U/ml penicillin, 100 gi/ml streptomycin, 4.5 g D-glucose/L (Sigma) 0.25% (v/v) sodium pyruvate, and 2% (v/v) 1 M HEPES (Gibco BRL).

Test [2] deals with T1, recombinant erythropoietin receptor (EPOR-Fc) (Homo sapiens, UniProt P19235).
T1 construct: the chip was incubated with soluble recombinant EPOR-Fc under standard conditions
T1 sequence (P19235 25-250 limits assumed): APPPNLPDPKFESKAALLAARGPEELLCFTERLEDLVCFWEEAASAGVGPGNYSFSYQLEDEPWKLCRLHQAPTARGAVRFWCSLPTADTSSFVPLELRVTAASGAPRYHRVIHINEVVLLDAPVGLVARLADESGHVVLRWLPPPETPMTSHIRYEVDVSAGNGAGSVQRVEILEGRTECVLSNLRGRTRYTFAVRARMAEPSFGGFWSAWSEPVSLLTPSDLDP
Briefly: SPR binding of soluble EPOR-Fc to immobilized Epo 3 peptide. Here is the method:
The binding of Epo 3 to EPOR-Fc was studied by SPR analysis. The Epo 3 peptide was immobilized on a chip and the chip was incubated with soluble recombinant EPOR-Fc under standard conditions. Three independent experiments were performed. […] The results of binding are shown on FIG. 16.
For orientation: Surface plasmon resonance follows binding to a sensor surface in real time, without labels.

The mark [3] stands for this setting: Epo 3 ionic bonded with the chip, soluble EPOR-Fc, three experiments.

Peptide text beside a SMILES is read from it.

With `CC(C)C[C@H](NC(=O)CNC(=O)[C@H](CO)NC(=O)[C@@H](NC(=O)[C@H](C)NC(=O)[C@H](CCCCN)NC(=O)[C@H](CC(=O)O)NC(=O)[C@@H](NC(=O)[C@H](Cc1c[nH]cn1)NC(=O)[C@H](CC(C)C)NC(=O)[C@@H](N)CCC(N)=O)C(C)C)C(C)C)C(=O)N[C@@H](CCCNC(=N)N)C(=O)N[C@@H](CO)C(=O)N[C@@H](CC(C)C)C(=O)N[C@H](C(=O)N[C@H](C(=O)N[C@@H](CC(C)C)C(=O)N[C@@H](CC(C)C)C(=O)N[C@@H](CCCNC(=N)N)C(=O)N[C@@H](C)C(=O)O)[C@@H](C)O)[C@@H](C)O` [Epo3] (H-QLHVDKAVSGLRSLTTLLRA-OH), the “neurite outgrowth from CGN (neuritogenic activity)” value in test [1] is listed as “capable of stimulating neurite outgrowth”. Further, in test [1] (listed as SEQ ID NO: 3), the “neurite outgrowth from CGN (neuritogenic activity)” value is on record as “strongly induce neurite outgrowth”. Moreover, the “binding to EPOR” value in test [2] (Epo 3 covalently bonded to the chip) is reported as “does not bind to EPOR”. In test [2] (setting [3]), the association rate ka is 2.1*10^4+−1.4*10^4 and the dissociation rate kd is 4.33*10^−5+−1.62*10^−5. Further, the kon in test [2] (Epo 3 ionic bonded with the chip, soluble EPOR-Fc, three experiments, read-out: association rate ka) turned out to be 21000 M⁻¹ s⁻¹. Moreover, the koff in test [2] (Epo 3 ionic bonded with the chip, soluble EPOR-Fc, three experiments, read-out: dissociation rate kd) is 4.33e-05 s⁻¹. Also, in test [2] (Epo 3 ionic bonded with the chip, soluble EPOR-Fc, read-out: overall binding affinity of EPOR to Epo3), the Kd worked out at 4.48 nM.

The values above are taken from patent US9044428B2, “Neuritogenic peptides” (Neoloch ApS, priority 2005, dated 2015).
